Source: patent US20050142254A1 (priority 2003, published 2005)
Where two headings read alike, the source gives them in different places.

How the values were obtained:
[1] = assay type: physicochemical
Excerpt: (§1) We also confirmed that AFQ1 degradation is accelerated by heat, and it occurs non-enzymatically. Horseradish peroxidase (HRP) has a strong AFB1-degrading activity as well as hemin.

[2] = assay type: biochemical
Excerpt: as §1

umu gene = assay type: cell-based
Method: Mutagenecity test was performed with the AFB1 degradation reaction mixture after hemin treatment. In the test, a conventional mutagenicity test kit “Umlac” (Nippon Antibody Laboratory) was used. Umlac is a kit for short-period mutagenicity test, umu-test, which was developed by Shinagawa (Research Institute for Microbial Diseases, Osaka University), et al. The test is to measure the expression level of umu gene using β-galactosidase activity as an index. The umu gene is considered to be a kind of SOS gene whose expression is induced by DNA-damaging chemicals, and known to be directly concerned with mutation. It has been confirmed that test result of “Umlac” well correlates with those of the Ames test and the carcinogenicity test that are currently used for typical mutagenicity test.
(§2) AFB1 degradation was performed at 50° C. for 6 hours in the presence or absence of hemin with the same reaction mixture as used in Example 1. After the reaction, the reaction mixture was subjected to the mutagenicity test with Umlac. Ten percent of DMSO aqueous solution was prepared as a control without AFB1, and then subjected to the same mutagenicity test.
Higher umu gene expression represents higher mutagenicity. The control value represents no mutagenicity.

[3] = Bisphenol A (BPA) degradation with hemin, HPLC; assay type: biochemical; conditions: 100 μM hemin, 400 μM BPA, 500 μM hydrogen peroxide, 30° C., reaction for 6 hours
Method: […]. hydrogen peroxide, 500 μM; Tween 80, 1%; hemin, 100 μM.
BPA degradation was confirmed by HPLC. After the reaction, a portion (100 μL) of the reaction mixture was taken, added to the equal amount of ethyl acetate, and extracted for 1 minute by mixing with a Voltex mixer. The mixture was centrifuged at 10,000×g for 2 minutes, and the ethyl acetate layer (upper layer) was recovered in a new 0.5-mL microtube.
HPLC analysis was conducted using the extract. The column used was STR ODS-II (0.46×15 cm). For the mobile phase for BPA quantification, 50% acetonitrile aqueous solution containing 0.1% trifluoroacetic acid was used at the flow rate of 0.7 mL/min. A UV-visible spectrophotometric detector (Shimadzu SPD-6AV) was used at the absorbance wave length of 277 nm for BPA detection.
For the mobile phase for the detection of BPA degradation product, 30% acetonitrile aqueous solution containing 0.1% trifluoroacetic acid was used at the flow rate of 0.5 mL/min. The absorbance at wave length of 280 nm was monitored for this detection.

[4] = Aniline degradation with hemin, HPLC; assay type: biochemical; conditions: 10 μM hemin, 50 μM aniline, 500 μM hydrogen peroxide, 30° C., reaction for 3 hours
Method: […]. Under this condition, the reaction mixture was uniform, thus no detergent was added to it.
After the reaction, equal amount of ethyl acetate was added to the reaction mixture, and extraction was done by mixing with a Voltex mixer for 1 minute, and then centrifuged at 10,000×g for 2 minutes. The resulting aniline-containing ethyl acetate layer (upper layer) was recovered in a new 0.5-mL microtube.
The ethyl acetate extract was directly subjected to HPLC analysis to determine the amount of remaining aniline. The column used was STRODS-II (0.46×15 cm). For mobile phase, 10% acetonitrile aqueous solution was used at the flow rate of 0.5 mL/min. With a UV-visible spectrophotometric detector (Shimadzu SPD-6AV), the absorbance at wave length of 280 nm was monitored for aniline detection.

[5] = assay type: biochemical; remark: listed apart in the source
Method: […]. Here, 25 μL of 400 μM hemin suspension was added to it and incubated at 30° C. for 30 minutes. The final concentration of each component was: AFB1, 16 μM; hydrogen peroxide, 500 μM; Tween 80, 1%; hemin, 100 μM.
After the reaction, HPLC and TLC analyses were performed to confirm the degradation of AFB1 and the formation of reaction product. The equal amount of ethyl acetate was added to the reaction mixture, and extraction was done by mixing with a Voltex mixer for 1 minute. The resulting mixture was centrifuged at 10,000×g for 2 minutes, and the ethyl acetate layer (upper layer) was recovered in a new 0.5-mL microtube.
The extract was used for HPLC analysis in succession. The separation column used was a silica column, Shim-pack CLC-SIL (0.46×15 cm). […].
AFB1 degradation was performed at 30° C. for 30 minutes in the same manner as in Example 1 except that the amount of hemin added was varied.
After the reaction, the amount of remaining AFB1 and that of AFQ1 formed were measured quantitatively by HPLC.
AFB1 degradation was performed at 30° C. for 30 minutes in the same manner as in Example 1 except that the amount of hydrogen peroxide added was varied.
After the reaction, amount of the remaining AFB1 and that of AFQ1 formed were measured quantitatively by HPLC.
as §2

[6] = assay type: biochemical; conditions: pH 7.5

In the case of HRP: Horseradish peroxidase, the “AFQ1-degradation rate, presence vs absence of HRP” value ([1]; 1 μM AFQ1 in phosphate buffer, 30° C. or 50° C.) is reported as “no significant difference” and the AFB1-degrading activity [2] is reported as “strong”.

For hemin, the “umu Gene Expression (OD620)” value (umu gene; reaction mixture with AFB1 and hemin, treatment at 50° C. for 6 hours) was 0.523, the “amount of BPA relative to that initially added” value [3] was 18% and the “aniline relative to that initially added” value [4] was 45%. For the same molecule, the AFB1 degraded ([5]; 200 μM hemin, 16 μM AFB1, 30° C. for 30 minutes) was “approximately 25%”, the “change in AFB1-degradation efficiency depending on hydrogen peroxide concentration” value ([5]; hemin, hydrogen peroxide 1.0 mM to 10 mM, 30° C. for 30 minutes) was “no significant increase” and the “remaining AFB1” value ([5]; reaction mixture with hemin, 16 μM AFB1, 50° C. for 6 hours) was no more than 0.16 µM. The AFB1 added degraded ([5]; reaction mixture with hemin, 50° C. for 6 hours) was “more than 99%” and the “aflatoxin M1 disappeared” value [6] was 36%.

With COc1cc2c(c3oc(=O)c4c(c13)C(O)CC4=O)C1C=COC1O2 (stereo not shown) [AFQ1, aflatoxin Q1] the “AFQ1 degradation, effect of temperature” value [1] was “degraded much rapidly at 50 °C than 30 °C”.

With COc1cc2c(c3oc(=O)c4c(c13)CCC4=O)C1C=COC1O2 (stereo not shown) [AFB1, aflatoxin B1] the “umu Gene Expression (OD620)” value (umu gene) was 1.185 and the “remaining AFB1” value [5] was 12 µM.
